The source made the active and inactive calls.
Columns and labels:
[1] = tested on: HEK293; experiment: cells; details: Homo sapiens
[2] = tested on: HEK293; experiment: cells; details: Homo sapiens; remark: listed apart in the source
[3] = target: Beta-galactosidase (Escherichia coli, UniProt Q8VNN2); experiment: PubChem AID 485352; type: functional
[4] = target: Type-1 angiotensin II receptor (Homo sapiens, UniProt P30556); experiment: AT1 receptor antagonists, dose response, selectivity assay for APJ receptor antagonist project, cell-based, uHTS hits (AID 463214); type: functional;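 note: antagonist potency against angiotensin II stimulated AT1 response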
[5] = target: Beta-2 adrenergic receptor (Homo sapiens, UniProt P07550); experiment: beta2AR agonists driving receptor internalization, dose response, cell-based, FAP fluorogen, flow cytometry, cherry pick 1 (AID 588763); type: functional
[6] = inhibitors of firefly luciferase expression or activity, dose response, H4 neuroglioma cells, luminescence (AID 1990); type: functional, cell-based
[7] = Luminescence Cell-Based Dose Response HTS to Identify Inhibitors of 5'UTR Stem-Loop Driven Prion Protein mRNA Translation in H4 Neuroglioblastoma Cells. [Related pubchem assays: 1827 (Project Summary), 1813 (Primary HTS)]; type: functional
[8] = inhibitors of SNCA 5'UTR-driven reporter translation, confirmation, H4 neuroglioma cells, luminescence (AID 1988); type: functional, cell-based
[9] = target: Glycogen synthase kinase-3 alpha (Homo sapiens, UniProt P49840); experiment: Inhibition of Human GSK-3 alpha Activity Measured in Biochemical System Using Microfluidics - 2063-06_Inhibitor_Dose_DryPowder_Activity. [Related pubchem assays (depositor defined):AID2709]
[10] = target: Glycogen synthase kinase-3 beta (Homo sapiens, UniProt P49841); experiment: Inhibition of Human GSK-3 beta Activity Measured in Biochemical System Using Microfluidics - 2063-05_Inhibitor_Dose_DryPowder_Activity. [Related pubchem assays (depositor defined):AID2709]
[11] = target: Cytochrome P450 2D6 (Homo sapiens, UniProt P10635);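 note: CYP2D6 member of a cytochrome P450 panel assay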
[12] = target: T1, Cytochrome P450 1A2 (Homo sapiens, UniProt P05177);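 note: PubChem cytochrome P450 panel assay, CYP1A2 panel member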
T1 sequence (P05177 whole entry): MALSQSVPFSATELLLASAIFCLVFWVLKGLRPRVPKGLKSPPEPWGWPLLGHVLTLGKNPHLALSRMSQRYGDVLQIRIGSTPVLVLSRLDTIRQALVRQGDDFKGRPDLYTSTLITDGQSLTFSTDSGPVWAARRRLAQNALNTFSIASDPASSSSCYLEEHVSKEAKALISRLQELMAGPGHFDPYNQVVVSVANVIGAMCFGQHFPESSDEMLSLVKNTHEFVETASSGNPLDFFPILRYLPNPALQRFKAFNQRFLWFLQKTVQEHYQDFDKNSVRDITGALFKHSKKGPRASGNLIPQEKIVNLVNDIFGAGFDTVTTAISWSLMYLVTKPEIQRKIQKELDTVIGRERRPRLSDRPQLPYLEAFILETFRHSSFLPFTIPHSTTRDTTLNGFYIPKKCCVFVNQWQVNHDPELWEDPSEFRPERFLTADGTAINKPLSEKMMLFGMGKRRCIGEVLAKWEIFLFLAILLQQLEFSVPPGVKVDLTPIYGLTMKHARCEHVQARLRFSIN

[13] = target: T2, Histone-lysine N-methyltransferase NSD2 (Homo sapiens, UniProt O96028); type: biochemical
T2 sequence (O96028 whole entry): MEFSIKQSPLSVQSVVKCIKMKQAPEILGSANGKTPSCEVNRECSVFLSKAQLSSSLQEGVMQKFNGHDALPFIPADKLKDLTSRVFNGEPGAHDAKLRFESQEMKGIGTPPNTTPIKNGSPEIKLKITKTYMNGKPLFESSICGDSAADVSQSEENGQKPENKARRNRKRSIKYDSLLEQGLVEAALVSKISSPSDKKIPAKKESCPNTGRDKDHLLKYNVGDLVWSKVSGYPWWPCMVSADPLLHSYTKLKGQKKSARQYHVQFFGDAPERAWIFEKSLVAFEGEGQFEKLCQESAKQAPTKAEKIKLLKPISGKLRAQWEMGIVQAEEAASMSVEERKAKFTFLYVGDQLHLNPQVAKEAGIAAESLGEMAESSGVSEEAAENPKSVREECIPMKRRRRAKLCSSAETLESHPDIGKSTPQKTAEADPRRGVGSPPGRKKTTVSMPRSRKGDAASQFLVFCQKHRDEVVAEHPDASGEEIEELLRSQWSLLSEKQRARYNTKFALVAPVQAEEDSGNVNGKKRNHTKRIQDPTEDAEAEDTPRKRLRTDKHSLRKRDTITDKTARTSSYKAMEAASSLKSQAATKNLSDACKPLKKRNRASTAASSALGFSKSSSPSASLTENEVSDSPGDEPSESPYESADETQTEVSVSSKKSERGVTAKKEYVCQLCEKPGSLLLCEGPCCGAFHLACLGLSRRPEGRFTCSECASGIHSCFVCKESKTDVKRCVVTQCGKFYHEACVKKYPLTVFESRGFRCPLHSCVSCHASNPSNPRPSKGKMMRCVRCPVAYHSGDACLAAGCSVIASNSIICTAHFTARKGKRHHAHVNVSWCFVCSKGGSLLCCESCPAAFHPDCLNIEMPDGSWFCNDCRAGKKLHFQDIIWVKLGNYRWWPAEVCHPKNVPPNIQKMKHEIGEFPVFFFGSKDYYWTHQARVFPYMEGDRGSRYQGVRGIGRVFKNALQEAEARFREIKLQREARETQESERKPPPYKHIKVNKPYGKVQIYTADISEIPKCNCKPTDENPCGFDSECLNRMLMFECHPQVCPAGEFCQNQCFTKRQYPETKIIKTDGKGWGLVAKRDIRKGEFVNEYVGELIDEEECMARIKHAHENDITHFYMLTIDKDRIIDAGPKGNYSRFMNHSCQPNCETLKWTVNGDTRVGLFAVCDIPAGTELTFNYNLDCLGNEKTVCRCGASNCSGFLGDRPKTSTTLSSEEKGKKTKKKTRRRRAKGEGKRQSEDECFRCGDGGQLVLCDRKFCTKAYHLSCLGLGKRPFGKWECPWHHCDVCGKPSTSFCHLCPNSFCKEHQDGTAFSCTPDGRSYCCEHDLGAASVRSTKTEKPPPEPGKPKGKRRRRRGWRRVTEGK

[14] = target: T3, Phospholipase D1 (Homo sapiens, UniProt Q13393); experiment: PLD1 inhibitor potency in cells, dose response (AID 602151); type: functional;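 note: cellular PLD1 assay in Calu-1 cells stimulated with PMA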
T3 sequence (Q13393 whole entry): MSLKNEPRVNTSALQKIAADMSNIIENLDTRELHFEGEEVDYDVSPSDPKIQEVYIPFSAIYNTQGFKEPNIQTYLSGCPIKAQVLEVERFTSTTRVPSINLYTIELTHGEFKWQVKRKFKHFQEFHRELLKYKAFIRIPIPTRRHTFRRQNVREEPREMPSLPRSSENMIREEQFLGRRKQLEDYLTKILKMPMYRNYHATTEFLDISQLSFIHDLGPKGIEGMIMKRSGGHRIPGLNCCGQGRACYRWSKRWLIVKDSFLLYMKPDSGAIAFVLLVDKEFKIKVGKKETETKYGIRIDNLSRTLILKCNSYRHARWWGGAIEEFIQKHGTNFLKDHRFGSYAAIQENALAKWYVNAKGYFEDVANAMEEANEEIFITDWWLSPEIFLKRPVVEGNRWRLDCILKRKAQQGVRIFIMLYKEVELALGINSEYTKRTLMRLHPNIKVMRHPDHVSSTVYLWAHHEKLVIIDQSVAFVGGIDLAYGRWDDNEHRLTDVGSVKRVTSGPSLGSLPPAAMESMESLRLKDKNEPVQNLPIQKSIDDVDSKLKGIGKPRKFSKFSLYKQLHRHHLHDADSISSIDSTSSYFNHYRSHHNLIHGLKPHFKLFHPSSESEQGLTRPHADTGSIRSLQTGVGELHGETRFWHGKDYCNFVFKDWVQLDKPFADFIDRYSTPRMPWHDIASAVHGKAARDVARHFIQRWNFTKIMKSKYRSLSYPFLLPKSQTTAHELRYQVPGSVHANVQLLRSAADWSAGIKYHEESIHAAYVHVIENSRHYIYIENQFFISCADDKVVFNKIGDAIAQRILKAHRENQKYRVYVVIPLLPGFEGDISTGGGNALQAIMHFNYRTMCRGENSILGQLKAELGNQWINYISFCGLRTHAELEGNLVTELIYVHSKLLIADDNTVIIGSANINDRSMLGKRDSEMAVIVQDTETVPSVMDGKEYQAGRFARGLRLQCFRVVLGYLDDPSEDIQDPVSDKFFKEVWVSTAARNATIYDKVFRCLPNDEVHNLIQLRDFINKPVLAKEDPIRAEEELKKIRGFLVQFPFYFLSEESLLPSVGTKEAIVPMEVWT

[15] = target: Phospholipase D2 (Homo sapiens, UniProt O14939); experiment: PLD2 inhibitor potency in cells, dose response (AID 602147); type: functional;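 note: cellular assay in HEK293 cells overexpressing GFP-tagged PLD2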
[16] = target: Hexokinase-1 (Homo sapiens, UniProt P19367); experiment: SAR analysis of small molecule inhibitors of hexokinase domain containing I (HKDC1) in the hexokinase 1 selectivity assay. [Related pubchem assays (depositor defined):AID493160, AID493190]; type: functional
[17] = target: T4, Hexokinase HKDC1 (Homo sapiens, UniProt Q2TB90); experiment: SAR analysis of small molecule inhibitors of hexokinase domain containing I (HKDC1). [Related pubchem assays (depositor defined):AID493160, AID493190]; type: functional
T4 sequence (Q2TB90 whole entry): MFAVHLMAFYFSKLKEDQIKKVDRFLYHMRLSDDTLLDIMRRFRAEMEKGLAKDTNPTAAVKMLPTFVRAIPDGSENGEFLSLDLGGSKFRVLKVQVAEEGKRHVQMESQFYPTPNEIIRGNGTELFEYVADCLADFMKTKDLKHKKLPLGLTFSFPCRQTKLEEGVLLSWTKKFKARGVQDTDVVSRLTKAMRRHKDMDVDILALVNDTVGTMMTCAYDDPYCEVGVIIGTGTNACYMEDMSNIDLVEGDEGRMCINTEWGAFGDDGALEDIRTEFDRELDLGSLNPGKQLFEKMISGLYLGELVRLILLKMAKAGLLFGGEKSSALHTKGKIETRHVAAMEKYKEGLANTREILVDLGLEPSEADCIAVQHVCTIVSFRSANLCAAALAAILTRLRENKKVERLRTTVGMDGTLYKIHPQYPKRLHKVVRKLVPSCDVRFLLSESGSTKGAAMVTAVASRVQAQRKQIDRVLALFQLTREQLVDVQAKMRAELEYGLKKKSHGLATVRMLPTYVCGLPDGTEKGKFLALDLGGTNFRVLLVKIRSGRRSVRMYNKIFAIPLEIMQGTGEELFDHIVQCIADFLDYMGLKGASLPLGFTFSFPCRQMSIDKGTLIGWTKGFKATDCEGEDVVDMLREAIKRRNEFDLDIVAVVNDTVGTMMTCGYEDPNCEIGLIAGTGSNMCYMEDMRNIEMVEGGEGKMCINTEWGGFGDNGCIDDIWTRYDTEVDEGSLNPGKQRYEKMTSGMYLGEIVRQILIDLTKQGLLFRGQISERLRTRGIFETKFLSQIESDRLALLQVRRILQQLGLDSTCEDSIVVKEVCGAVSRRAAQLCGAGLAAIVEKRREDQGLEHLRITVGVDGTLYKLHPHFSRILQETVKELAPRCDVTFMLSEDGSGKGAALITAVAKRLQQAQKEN

[18] = target: Dual specificity tyrosine-phosphorylation-regulated kinase 1A (Rattus norvegicus, UniProt Q63470); type: biochemical, Homo sapiens

Type-1 angiotensin II receptor, sequence (P30556 whole entry): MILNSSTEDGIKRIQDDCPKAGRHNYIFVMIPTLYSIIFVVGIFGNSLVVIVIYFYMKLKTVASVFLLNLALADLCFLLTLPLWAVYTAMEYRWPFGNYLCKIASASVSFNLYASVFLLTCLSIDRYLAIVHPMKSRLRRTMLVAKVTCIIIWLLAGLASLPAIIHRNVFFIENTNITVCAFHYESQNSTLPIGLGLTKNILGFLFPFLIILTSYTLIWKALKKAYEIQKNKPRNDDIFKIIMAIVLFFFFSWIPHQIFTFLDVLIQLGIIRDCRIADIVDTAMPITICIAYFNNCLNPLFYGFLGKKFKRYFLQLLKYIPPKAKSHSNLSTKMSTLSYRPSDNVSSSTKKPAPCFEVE
Glycogen synthase kinase-3 alpha, sequence (P49840 whole entry): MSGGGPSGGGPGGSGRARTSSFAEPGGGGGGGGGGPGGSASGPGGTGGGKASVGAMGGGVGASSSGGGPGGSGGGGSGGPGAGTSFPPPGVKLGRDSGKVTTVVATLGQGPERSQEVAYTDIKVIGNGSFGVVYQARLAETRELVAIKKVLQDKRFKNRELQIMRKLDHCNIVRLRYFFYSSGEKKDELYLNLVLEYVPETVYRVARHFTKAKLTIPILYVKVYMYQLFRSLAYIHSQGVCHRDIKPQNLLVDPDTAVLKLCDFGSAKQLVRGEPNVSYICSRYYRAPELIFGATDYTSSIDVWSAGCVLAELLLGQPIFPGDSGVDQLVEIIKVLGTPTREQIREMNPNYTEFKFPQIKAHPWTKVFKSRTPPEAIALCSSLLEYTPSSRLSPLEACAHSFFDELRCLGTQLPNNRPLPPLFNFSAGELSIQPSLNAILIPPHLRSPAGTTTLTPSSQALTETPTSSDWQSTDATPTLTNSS
Glycogen synthase kinase-3 beta, sequence (P49841 whole entry): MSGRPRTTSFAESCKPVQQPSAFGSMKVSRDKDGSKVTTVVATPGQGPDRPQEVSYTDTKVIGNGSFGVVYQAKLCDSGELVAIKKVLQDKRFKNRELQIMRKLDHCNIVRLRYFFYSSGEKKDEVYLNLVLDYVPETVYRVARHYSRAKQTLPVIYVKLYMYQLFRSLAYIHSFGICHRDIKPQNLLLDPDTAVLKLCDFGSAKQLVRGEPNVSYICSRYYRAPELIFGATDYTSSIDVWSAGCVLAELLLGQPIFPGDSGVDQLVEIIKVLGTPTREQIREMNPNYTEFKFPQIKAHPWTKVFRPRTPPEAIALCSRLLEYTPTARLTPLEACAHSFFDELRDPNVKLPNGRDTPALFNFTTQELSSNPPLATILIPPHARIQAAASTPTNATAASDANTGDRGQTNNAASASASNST
Phospholipase D2, sequence (O14939 whole entry, the tested form may be a part): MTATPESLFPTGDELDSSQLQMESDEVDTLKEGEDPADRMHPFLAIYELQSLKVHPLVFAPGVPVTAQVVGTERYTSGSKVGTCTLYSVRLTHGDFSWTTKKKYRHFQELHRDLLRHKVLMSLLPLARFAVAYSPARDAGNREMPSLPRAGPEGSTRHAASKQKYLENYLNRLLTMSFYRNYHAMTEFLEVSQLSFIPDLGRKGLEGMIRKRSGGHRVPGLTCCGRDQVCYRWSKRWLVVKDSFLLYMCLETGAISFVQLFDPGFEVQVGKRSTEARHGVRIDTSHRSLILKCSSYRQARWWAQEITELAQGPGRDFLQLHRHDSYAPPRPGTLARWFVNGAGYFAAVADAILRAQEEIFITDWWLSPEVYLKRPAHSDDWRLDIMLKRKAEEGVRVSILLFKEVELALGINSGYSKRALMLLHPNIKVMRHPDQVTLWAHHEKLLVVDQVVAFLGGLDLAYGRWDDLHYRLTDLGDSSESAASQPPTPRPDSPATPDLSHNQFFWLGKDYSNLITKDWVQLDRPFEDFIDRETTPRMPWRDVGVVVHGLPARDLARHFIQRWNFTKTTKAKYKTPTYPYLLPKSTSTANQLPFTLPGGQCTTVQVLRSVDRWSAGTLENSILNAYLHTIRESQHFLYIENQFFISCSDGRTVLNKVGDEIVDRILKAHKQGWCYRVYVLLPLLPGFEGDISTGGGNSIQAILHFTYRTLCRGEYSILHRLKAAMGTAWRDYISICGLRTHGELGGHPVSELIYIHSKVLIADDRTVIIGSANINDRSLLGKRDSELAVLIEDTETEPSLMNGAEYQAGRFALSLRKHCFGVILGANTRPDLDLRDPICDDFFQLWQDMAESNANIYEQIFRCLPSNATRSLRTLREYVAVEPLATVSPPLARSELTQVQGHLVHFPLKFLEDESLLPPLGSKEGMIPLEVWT
Beta-galactosidase, sequence (Q8VNN2 whole entry): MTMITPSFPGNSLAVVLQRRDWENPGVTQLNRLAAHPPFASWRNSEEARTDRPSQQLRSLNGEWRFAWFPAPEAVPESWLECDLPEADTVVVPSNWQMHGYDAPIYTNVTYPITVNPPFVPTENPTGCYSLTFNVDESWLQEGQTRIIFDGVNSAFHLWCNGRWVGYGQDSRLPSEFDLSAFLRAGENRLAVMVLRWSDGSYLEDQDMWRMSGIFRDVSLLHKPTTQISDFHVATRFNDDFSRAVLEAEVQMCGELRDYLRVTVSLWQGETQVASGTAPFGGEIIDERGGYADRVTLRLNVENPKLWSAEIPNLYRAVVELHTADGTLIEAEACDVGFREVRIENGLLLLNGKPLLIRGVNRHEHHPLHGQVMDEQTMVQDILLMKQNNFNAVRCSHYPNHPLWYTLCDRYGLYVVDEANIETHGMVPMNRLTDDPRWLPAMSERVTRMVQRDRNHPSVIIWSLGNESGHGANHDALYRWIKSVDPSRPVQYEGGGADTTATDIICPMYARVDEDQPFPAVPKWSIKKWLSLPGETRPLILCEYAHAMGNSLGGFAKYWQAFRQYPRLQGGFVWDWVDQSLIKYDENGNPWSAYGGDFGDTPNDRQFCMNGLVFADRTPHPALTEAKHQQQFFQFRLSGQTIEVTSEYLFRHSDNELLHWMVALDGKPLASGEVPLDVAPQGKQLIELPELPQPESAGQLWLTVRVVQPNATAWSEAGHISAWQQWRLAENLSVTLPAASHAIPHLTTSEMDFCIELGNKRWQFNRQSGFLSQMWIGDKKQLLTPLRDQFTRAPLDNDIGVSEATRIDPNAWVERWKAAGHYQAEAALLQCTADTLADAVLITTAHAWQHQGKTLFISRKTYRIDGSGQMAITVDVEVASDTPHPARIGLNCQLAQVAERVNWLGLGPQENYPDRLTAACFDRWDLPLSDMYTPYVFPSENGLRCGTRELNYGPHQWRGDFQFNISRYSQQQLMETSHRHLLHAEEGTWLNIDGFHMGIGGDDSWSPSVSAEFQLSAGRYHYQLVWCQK
Hexokinase-1, sequence (P19367 whole entry, the tested form may be a part): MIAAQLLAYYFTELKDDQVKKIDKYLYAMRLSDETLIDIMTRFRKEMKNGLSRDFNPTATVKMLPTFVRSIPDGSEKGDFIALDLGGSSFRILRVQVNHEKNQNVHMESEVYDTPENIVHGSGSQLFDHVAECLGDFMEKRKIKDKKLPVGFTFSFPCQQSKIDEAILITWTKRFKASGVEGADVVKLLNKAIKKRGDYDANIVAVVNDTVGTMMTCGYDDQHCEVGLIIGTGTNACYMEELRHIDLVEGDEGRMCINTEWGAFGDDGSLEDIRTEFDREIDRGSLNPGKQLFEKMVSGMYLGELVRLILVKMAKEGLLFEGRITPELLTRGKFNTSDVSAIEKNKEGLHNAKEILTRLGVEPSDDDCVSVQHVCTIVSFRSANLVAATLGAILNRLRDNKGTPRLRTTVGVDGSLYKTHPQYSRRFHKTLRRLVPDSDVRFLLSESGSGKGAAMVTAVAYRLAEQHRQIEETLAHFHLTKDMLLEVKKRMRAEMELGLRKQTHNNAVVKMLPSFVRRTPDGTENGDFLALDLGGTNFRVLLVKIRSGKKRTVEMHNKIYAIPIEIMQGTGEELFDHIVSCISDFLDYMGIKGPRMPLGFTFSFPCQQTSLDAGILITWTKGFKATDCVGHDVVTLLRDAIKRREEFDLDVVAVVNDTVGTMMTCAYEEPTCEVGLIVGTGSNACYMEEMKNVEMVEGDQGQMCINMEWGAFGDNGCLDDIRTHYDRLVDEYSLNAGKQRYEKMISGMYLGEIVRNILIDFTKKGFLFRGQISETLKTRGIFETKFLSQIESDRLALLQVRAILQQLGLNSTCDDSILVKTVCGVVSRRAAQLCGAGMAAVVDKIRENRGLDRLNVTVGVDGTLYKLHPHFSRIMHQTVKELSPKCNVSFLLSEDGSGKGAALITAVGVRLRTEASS
Beta-2 adrenergic receptor, sequence (P07550 whole entry): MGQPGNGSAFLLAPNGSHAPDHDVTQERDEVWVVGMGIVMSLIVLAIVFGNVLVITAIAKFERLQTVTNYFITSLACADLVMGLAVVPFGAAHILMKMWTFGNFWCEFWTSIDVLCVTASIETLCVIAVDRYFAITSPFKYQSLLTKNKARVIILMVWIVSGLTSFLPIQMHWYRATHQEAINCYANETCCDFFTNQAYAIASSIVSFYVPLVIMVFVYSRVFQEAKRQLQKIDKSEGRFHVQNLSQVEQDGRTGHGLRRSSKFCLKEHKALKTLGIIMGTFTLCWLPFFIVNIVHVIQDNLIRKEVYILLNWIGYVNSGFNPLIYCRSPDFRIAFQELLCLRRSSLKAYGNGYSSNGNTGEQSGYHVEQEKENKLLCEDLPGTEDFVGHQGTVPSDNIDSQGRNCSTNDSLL
Cytochrome P450 2D6, sequence (P10635 whole entry): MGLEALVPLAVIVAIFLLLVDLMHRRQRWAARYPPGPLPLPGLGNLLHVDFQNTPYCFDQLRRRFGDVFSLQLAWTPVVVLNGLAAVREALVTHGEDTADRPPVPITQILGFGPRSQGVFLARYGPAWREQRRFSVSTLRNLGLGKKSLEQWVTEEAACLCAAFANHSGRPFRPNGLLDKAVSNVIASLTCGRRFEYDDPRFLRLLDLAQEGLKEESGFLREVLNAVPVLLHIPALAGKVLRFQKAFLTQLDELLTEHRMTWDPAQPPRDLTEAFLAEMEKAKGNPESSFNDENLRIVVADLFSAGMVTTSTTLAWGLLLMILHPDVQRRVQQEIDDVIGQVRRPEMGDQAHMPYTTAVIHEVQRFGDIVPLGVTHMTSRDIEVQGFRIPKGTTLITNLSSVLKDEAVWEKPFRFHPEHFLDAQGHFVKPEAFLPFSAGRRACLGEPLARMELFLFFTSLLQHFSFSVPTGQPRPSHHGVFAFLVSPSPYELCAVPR

In the case of `COc1ccc(N2C(=O)CC(N(CCc3ccc(OC)c(OC)c3)C(S)=Nc3ccccc3)C2=O)cc1` (stereo not drawn), the EC50 [1] is reported as > 59.6 µM (inactive) and the EC50 [2] is reported as > 59.6 µM (inactive).
In the case of `O=c1c2cc(Br)ccc2[nH]c(=S)n1Cc1ccccn1`, the EC50 [3] is reported as > 40 µM (inactive) and the IC50 [4] is reported as 29.7 µM (not active).
With `CC(=O)c1ccc(OCc2cc(C(=O)N(C)CCOc3ccc(C)cc3)no2)cc1` the EC50 [5] was 1.91 µM (active).
For `C=CCNc1nc(N)c([N+](=O)[O-])c(Nc2ccccc2OC)n1`, the EC50 [6] was 11.4 µM (active), the EC50 [7] was 11.7 µM (active) and the EC50 [8] was 14.2 µM (active). For the same compound, the AC50 [9] was 388 nM (active) and the AC50 [10] was 54.4 nM (active).
For `c1ccc2c(CSc3nnc(-c4ccncc4)o3)cccc2c1`, the AC50 [9] was 2930 nM (active), the AC50 [10] was 143 nM (active) and the AC50 [11] was 501 nM (inconclusive). For the same compound, the AC50 [12] was 3.16 µM (inconclusive).
For `NC1(C(=O)O)CSSC1`, the AC50 [13] was 14.5 µM (active), the EC50 [1] was > 59.8 µM (inactive) and the EC50 [2] was > 59.8 µM (inactive).
In the case of `C[C@H](CN1CCC2(CC1)C(=O)NCN2c1ccccc1)NC(=O)c1cc(Br)c(Br)o1`, the IC50 [14] is reported as 330 nM (active) and the IC50 [15] is reported as 2.3 µM (active).
In the case of `COc1ccc(CNc2cc3n(c(=O)n2)CCc2cc(OC)c(OC)cc2-3)cc1`, the IC50 [16] is reported as > 80 µM (inactive) and the IC50 [17] is reported as > 80 µM (inactive).
In the case of `O=C(NCCN1CCC(n2c(=O)[nH]c3ccc(F)cc32)CC1)c1cccc2c1C(=O)c1ccccc1-2`, the IC50 [14] is reported as 7 nM (active) and the IC50 [15] is reported as 0.17 µM (active).
With `O=S(=O)(Nc1cccc2ccccc12)c1ccc(Cl)cc1` the IC50 [16] was > 80 µM (inactive) and the IC50 [17] was > 80 µM (inactive).
With `Cc1[nH]n(C(N)=S)c(=O)c1/N=N/c1ccc([N+](=O)[O-])cc1Cl` the EC50 [3] was > 40 µM (inactive) and the IC50 [4] was > 40 µM (not active).
For `OC[C@H]1O[C@@H](n2cnc3cc(Cl)c(Cl)cc32)[C@H](O)[C@@H]1O` [DICHLORORIBOBENZIMIDAZOLE], the AC50 [18] was 3.76 µM (active).
